Target: human APJ receptor (Homo sapiens (Human), UniProt P35414)
Experiment: [35S]GTPγS binding assay on membranes from CHO cells stably expressing human APJ receptor
Assay type: biochemical
Conditions: read-out: Activity hAPJ SPA EC50 IP
Method in brief: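 Membranes from CHO cells stably expressing human APJ incubated with ligand, 0.2 nM [35S]GTPγS and WGA SPA beads in HEPES pH 7.5 with 5 mM MgCl2, 200 mM NaCl, 3 μM GDP, 90 min at RT. Nonspecific binding defined with 100 μM GTPγS; EC50 by non-linear regression.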

Chain of human APJ receptor (P35414 whole entry): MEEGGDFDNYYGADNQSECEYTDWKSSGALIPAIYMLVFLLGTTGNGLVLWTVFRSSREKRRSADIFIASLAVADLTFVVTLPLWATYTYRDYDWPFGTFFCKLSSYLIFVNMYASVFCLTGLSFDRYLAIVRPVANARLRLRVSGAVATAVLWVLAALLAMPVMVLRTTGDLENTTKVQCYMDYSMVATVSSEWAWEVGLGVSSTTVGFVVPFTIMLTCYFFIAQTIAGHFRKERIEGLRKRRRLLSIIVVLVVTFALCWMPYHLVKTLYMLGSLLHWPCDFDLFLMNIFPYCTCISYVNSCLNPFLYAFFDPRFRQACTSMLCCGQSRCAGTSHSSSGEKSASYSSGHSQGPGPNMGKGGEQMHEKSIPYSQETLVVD

Row | Molecule | EC50 [nM]
1 | COc1ncnc(OC)c1-n1c(NS(=O)(=O)[C@@H](C)[C@@H](OC(C)C)c2ncc(Cl)cn2)nnc1[C@H]1CCOC1 (single isomer, unassigned) [Example 292.0, (1S,2S)-1-(5-chloropyrimidin-2-yl)-N-(4-(4,6-dimethoxypyrimidin-5-yl)-5-((R)-tetrahydrofuran-3-yl)-4H-1,2,4-triazol-3-yl)-1-isopropoxypropane-2-sulfonamide or (1S,2S)-1-(5-chloropyrimidin-2-yl)-N-(4-(4,6-dimethoxypyrimidin-5-yl)-5-((S)-tetrahydrofuran-3-yl)-4H-1,2,4-triazol-3-yl)-1-isopropoxypropane-2-sulfonamide] | 18
2 | COc1cccc(OC)c1-n1c(NS(=O)(=O)[C@@H](C)[C@H](C)c2ncc(Cl)cn2)nnc1[C@@H]1COCCO1 (single isomer, unassigned) [Example 39.0, (2S,3R)-3-(5-chloro-2-pyrimidinyl)-N-(4-(2,6-dimethoxyphenyl)-5-((2R)-1,4-dioxan-2-yl)-4H-1,2,4-triazol-3-yl)-2-butanesulfonamide or (2S,3R)-3-(5-chloro-2-pyrimidinyl)-N-(4-(2,6-dimethoxyphenyl)-5-((2S)-1,4-dioxan-2-yl)-4H-1,2,4-triazol-3-yl)-2-butanesulfonamide] | 5.3
3 | COc1ncnc(OC)c1-n1c(NS(=O)(=O)[C@@H](C)[C@H](OC)c2ncc(Cl)cn2)nnc1[C@H]1CCC(C)(C)O1 (single isomer, unassigned) [Example 138.0, (1R,2S)-1-(5-chloropyrimidin-2-yl)-N-(4-(4,6-dimethoxypyrimidin-5-yl)-5-((S)-5,5-dimethyltetrahydrofuran-2-yl)-4H-1,2,4-triazol-3-yl)-1-methoxypropane-2-sulfonamide or (1R,2S)-1-(5-chloropyrimidin-2-yl)-N-(4-(4,6-dimethoxypyrimidin-5-yl)-5-((R)-5,5-dimethyltetrahydrofuran-2-yl)-4H-1,2,4-triazol-3-yl)-1-methoxypropane-2-sulfonamide] | 120
4 | (1S,2S)-N-(4-(2,6-dimethoxyphenyl)-5-((3R)-tetrahydro-3-furanyl)-4H-1,2,4-triazol-3-yl)-1-(5-methyl-2-pyridinyl)-1-(2-propanyloxy)-2-propanesulfonamide or (1S,2S)-N-(4-(2,6-dimethoxyphenyl)-5-((3S)-tetrahydro-3-furanyl)-4H-1,2,4-triazol-3-yl)-1-(5-methyl-2-pyridinyl)-1-(2-propanyloxy)-2-propanesulfonamide [Example 407.0] | 10
5 | CO[C@H](c1cnc(C)cn1)[C@H](C)S(=O)(=O)Nc1nnc([C@H]2CCOC2)n1C1(C)CC1 (single isomer, unassigned) [Example 129.0, (1R,2S)-1-methoxy-N-(4-(1-methylcyclopropyl)-5-((R)-tetrahydrofuran-3-yl)-4H-1,2,4-triazol-3-yl)-1-(5-methylpyrazin-2-yl)propane-2-sulfonamide or (1R,2S)-1-methoxy-N-(4-(1-methylcyclopropyl)-5-((S)-tetrahydrofuran-3-yl)-4H-1,2,4-triazol-3-yl)-1-(5-methylpyrazin-2-yl)propane-2-sulfonamide] | 2100
6 | COc1cccc(OC)c1-n1c(NS(=O)(=O)[C@@H](C)[C@H](C)c2ncc(Cl)cn2)nnc1[C@H]1CCO1 (mixture of isomers) [Example 142.0, (2S,3R)-3-(5-chloropyrimidin-2-yl)-N-(4-(2,6-dimethoxyphenyl)-5-((R)-oxetan-2-yl)-4H-1,2,4-triazol-3-yl)butane-2-sulfonamide and (2S,3R)-3-(5-chloropyrimidin-2-yl)-N-(4-(2,6-dimethoxyphenyl)-5-((S)-oxetan-2-yl)-4H-1,2,4-triazol-3-yl)butane-2-sulfonamide] | 1.9
7 | (1S,2S)-N-(4-(1,3-dimethoxy-2-propanyl)-5-((2R,5R)-5-methyltetrahydro-2-furanyl)-4H-1,2,4-triazol-3-yl)-1-(5-methoxy-2-pyrimidinyl)-1-(2-propanyloxy)-2-propanesulfonamide or (1S,2S)-N-(4-(1,3-dimethoxy-2-propanyl)-5-((2S,5S)-5-methyltetrahydro-2-furanyl)-4H-1,2,4-triazol-3-yl)-1-(5-methoxy-2-pyrimidinyl)-1-(2-propanyloxy)-2-propanesulfonamide [Example 362.0] | 390
8 | CO[C@H](c1ncc(Cl)cn1)[C@H](C)S(=O)(=O)Nc1nnc([C@H]2CCC(C)(C)O2)n1C(C)C (single isomer, unassigned) [Example 299.0, (1R,2S)-1-(5-chloropyrimidin-2-yl)-N-(5-((R)-5,5-dimethyltetrahydrofuran-2-yl)-4-isopropyl-4H-1,2,4-triazol-3-yl)-1-methoxypropane-2-sulfonamide or (1R,2S)-1-(5-chloropyrimidin-2-yl)-N-(5-((S)-5,5-dimethyltetrahydrofuran-2-yl)-4-isopropyl-4H-1,2,4-triazol-3-yl)-1-methoxypropane-2-sulfonamide] | 940
9 | COc1cccc(OC)c1-n1c(NS(=O)(=O)CCc2ncc(Cl)cn2)nnc1[C@@H]1CCCO1 [Example 388.0, 2-(5-chloro-2-pyrimidinyl)-N-(4-(2,6-dimethoxyphenyl)-5-((2S)-tetrahydro-2-furanyl)-4H-1,2,4-triazol-3-yl)ethanesulfonamide] | 9.8
10 | COc1cccc(OC)c1-n1c(NS(=O)(=O)[C@@H](C)[C@H](O)c2ncc(C)cn2)nnc1[C@H]1CCOC1 (single isomer, unassigned) [Example 141.0, (1R,2S)-N-(4-(2,6-dimethoxyphenyl)-5-((S)-tetrahydrofuran-3-yl)-4H-1,2,4-triazol-3-yl)-1-hydroxy-1-(5-methylpyrimidin-2-yl)propane-2-sulfonamide or (1R,2S)-N-(4-(2,6-dimethoxyphenyl)-5-((R)-tetrahydrofuran-3-yl)-4H-1,2,4-triazol-3-yl)-1-hydroxy-1-(5-methylpyrimidin-2-yl)propane-2-sulfonamide] | 200
11 | CO[C@H](c1ncc(Cl)cn1)[C@H](C)S(=O)(=O)Nc1nnc([C@@H]2COCCO2)n1C1(C)CC1 (single isomer, unassigned) [Example 272.0, (1R,2S)-N-(5-((R)-1,4-dioxan-2-yl)-4-(1-methylcyclopropyl)-4H-1,2,4-triazol-3-yl)-1-(5-chloropyrimidin-2-yl)-1-methoxypropane-2-sulfonamide or (1R,2S)-N-(5-((S)-1,4-dioxan-2-yl)-4-(1-methylcyclopropyl)-4H-1,2,4-triazol-3-yl)-1-(5-chloropyrimidin-2-yl)-1-methoxypropane-2-sulfonamide] | 1010
12 | COc1ncnc(OC)c1-n1c(NS(=O)(=O)[C@@H](C)[C@H](OC)c2ncc(Cl)cn2)nnc1[C@H]1CCCO1 (single isomer, unassigned) [Example 79.0, (1R,2S)-1-(5-chloropyrimidin-2-yl)-N-(4-(4,6-dimethoxypyrimidin-5-yl)-5-((S)-tetrahydrofuran-2-yl)-4H-1,2,4-triazol-3-yl)-1-methoxypropane-2-sulfonamide or (1R,2S)-1-(5-chloropyrimidin-2-yl)-N-(4-(4,6-dimethoxypyrimidin-5-yl)-5-((R)-tetrahydrofuran-2-yl)-4H-1,2,4-triazol-3-yl)-1-methoxypropane-2-sulfonamide] | 110
13 | COc1cccc(OC)c1-n1c(NS(=O)(=O)[C@@H](C)[C@H](C)c2ncc(Cl)cn2)nnc1[C@H]1CCC(=O)N1C (single isomer, unassigned) [Example 419.0, (2S,3R)-3-(5-chloro-2-pyrimidinyl)-N-(4-(2,6-dimethoxyphenyl)-5-((2R)-1-methyl-5-oxo-2-pyrrolidinyl)-4H-1,2,4-triazol-3-yl)-2-butanesulfonamide or ((2S,3R)-3-(5-chloro-2-pyrimidinyl)-N-(4-(2,6-dimethoxyphenyl)-5-((2S)-1-methyl-5-oxo-2-pyrrolidinyl)-4H-1,2,4-triazol-3-yl)-2-butanesulfonamide] | 3430
14 | COc1ncnc(OC)c1-n1c(NS(=O)(=O)[C@@H](C)[C@H](C)c2ncc(C)cn2)nnc1[C@H]1CCCO1 (single isomer, unassigned) [Example 70.0, (2S,3R)-N-(4-(4,6-dimethoxypyrimidin-5-yl)-5-((S)-tetrahydrofuran-2-yl)-4H-1,2,4-triazol-3-yl)-3-(5-methylpyrimidin-2-yl)butane-2-sulfonamide or (2S,3R)-N-(4-(4,6-dimethoxypyrimidin-5-yl)-5-((R)-tetrahydrofuran-2-yl)-4H-1,2,4-triazol-3-yl)-3-(5-methylpyrimidin-2-yl)butane-2-sulfonamide] | 15
15 | COc1cccc(OC)c1-n1c(NS(=O)(=O)[C@@H](C)[C@H](C)c2ncc(Cl)cn2)nnc1[C@H]1CCC(=O)N1 (single isomer, unassigned) [Example 344.0, (2S,3R)-3-(5-chloropyrimidin-2-yl)-N-(4-(2,6-dimethoxyphenyl)-5-((R)-5-oxopyrrolidin-2-yl)-4H-1,2,4-triazol-3-yl)butane-2-sulfonamide or (2S,3R)-3-(5-chloropyrimidin-2-yl)-N-(4-(2,6-dimethoxyphenyl)-5-((S)-5-oxopyrrolidin-2-yl)-4H-1,2,4-triazol-3-yl)butane-2-sulfonamide] | 230
16 | COc1ncnc(OC)c1-n1c(NS(=O)(=O)[C@@H](C)[C@H](C)c2ncc(Cl)cn2)nnc1[C@@H]1CCCCO1 (single isomer, unassigned) [Example 191.0, (2S,3R)-3-(5-chloropyrimidin-2-yl)-N-(4-(4,6-dimethoxypyrimidin-5-yl)-5-((S)-tetrahydro-2H-pyran-2-yl)-4H-1,2,4-triazol-3-yl)butane-2-sulfonamide or (2S,3R)-3-(5-chloropyrimidin-2-yl)-N-(4-(4,6-dimethoxypyrimidin-5-yl)-5-((R)-tetrahydro-2H-pyran-2-yl)-4H-1,2,4-triazol-3-yl)butane-2-sulofnamide] | 4.1

Reference: patent US10150760B2, “Compounds for use in preparing heterocyclic triazole agonists of the APJ receptor” (AMGEN INC., priority 2016, dated 2018)
